The structures appear in SMILES notation. Some results are limits rather than exact numbers.

This note sets out measurements from US8846704B2, “Thiopyrimidine-based compounds and uses thereof” (YM Biosciences Austraila Pty Ltd, priority 2007, dated 2014).

This assay deals with T1, human JAK3 (Homo sapiens, UniProt P52333).
T1 construct: The kinase domain of human JAK3 was amplified; GST (N); made in house; host or cells: Sf9 insect cells (baculovirus)
As to the kind of experiment: Alphascreen tyrosine kinase enzyme assay, JAK3 kinase domain. As to conditions: read-out: JAK3 IC50_nM. It counts as biochemical. Summed up: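 GST-affinity-purified human JAK3 kinase domain (baculovirus/Sf9) was pre-incubated 20 min with compound ([…]) in HEPES pH 7.5 buffer with MgCl2, vanadate and Tween 20. Biotinylated peptide substrate ([…]) and ATP were then added; phosphotyrosine was detected by AlphaScreen PY100 acceptor and streptavidin donor beads after 2–3 h.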
For orientation: In Alpha technology, singlet oxygen from a donor bead excites a nearby acceptor bead.

T1 sequence (P52333 822-1111 limits assumed): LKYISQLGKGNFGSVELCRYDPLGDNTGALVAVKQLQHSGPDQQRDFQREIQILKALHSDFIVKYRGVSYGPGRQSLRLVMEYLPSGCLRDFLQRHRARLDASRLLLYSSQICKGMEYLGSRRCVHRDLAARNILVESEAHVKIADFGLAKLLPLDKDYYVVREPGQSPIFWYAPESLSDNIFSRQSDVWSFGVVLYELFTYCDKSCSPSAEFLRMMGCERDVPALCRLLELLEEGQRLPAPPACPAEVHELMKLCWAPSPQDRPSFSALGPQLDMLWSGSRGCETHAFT

Take `COc1ccc(Nc2ncc(C)c(Sc3ccc(N)cc3)n2)cc1OC` [Compound 240, 4-(4-aophenylthio)-N-(3,4-dimethoxyphenyl)-5-methylpyrimidin-2-ae]: the IC50 is < 500 nM.
Under `C=CC(=O)Nc1ccc(Sc2nc(Nc3ccc(OC)c(OC)c3)ncc2C)cc1` [Compound 241, N-(4-(2-(3,4-dimethoxyphenylao)-5-methylpyrimidin-4-ylthio)phenyl)acrylamide] stands < 100 nM; under `C=CC(=O)Nc1ccc(Sc2nc(Nc3ccc(C)c(Br)c3)ncc2C)cc1` [Compound 242, N-(4-(2-(3-bromo-4-methylphenylao)-5-methylpyrimidin-4-ylthio)phenyl)acrylamide], < 500 nM.
As for `C=CC(=O)Nc1ccc(Sc2nc(Nc3cccc(N4CCN(C)CC4)c3)ncc2C)cc1` [Compound 243, N-(4-(5-methyl-2-(3-(4-methylpiperazin-1-yl)phenylao)pyrimidin-4-ylthio)phenyl)acrylamide], the IC50 is < 100 nM.
Take `Cc1cnc(Nc2ccc(N3CCN(C)CC3)cc2)nc1Sc1ccc(N)cc1` [Compound 244, 4-(4-aophenylthio)-5-methyl-N-(4-(4-methylpiperazin-1-yl)phenyl)pyrimidin-2-ae]: the IC50 was < 100 nM.
The same measure for `Cc1cnc(Nc2cccc(N3CCN(C)CC3)c2)nc1Sc1ccc(N)cc1` [Compound 245, 4-(4-aophenylthio)-5-methyl-N-(3-(4-methylpiperazin-1-yl)phenyl)pyrimidin-2-ae]: < 500 nM.
The same measure for `C=CC(=O)Nc1ccc(Sc2nc(Nc3ccc(C4CCN(C)CC4)cc3)ncc2C)cc1` [Compound 246, N-(4-(5-methyl-2-(4-(1-methylpiperidin-4-yl)phenylao)pyrimidin-4-ylthio)phenyl)acrylamide]: < 100 nM; for `C=CC(=O)Nc1ccc(Sc2nc(Nc3ccc(N4CCOCC4)c(OC)c3)ncc2C)cc1` [Compound 248, N-(4-(2-(3-methoxy-4-morpholinophenylao)-5-methylpyrimidin-4-ylthio)phenyl)acrylamide]: < 100 nM; for `C=CC(=O)Nc1ccc(Sc2nc(Nc3ccc(N4CCN(C)CC4)c(OC)c3)ncc2C)cc1` [Compound 249, N-(4-(2-(3-methoxy-4-(4-methylpiperazin-1-yl)phenylao)-5-methylpyrimidin-4-ylthio)phenyl)acrylamide]: < 100 nM.
Take `Cc1cnc(Nc2ccc(N3CCOCC3)cc2)nc1Sc1ccc(N)cc1Cl` [Compound 251, 4-(4-ao-2-chlorophenylthio)-5-methyl-N-(4-morpholinophenyl)pyrimidin-2-ae]: the IC50 is < 100 nM.
The same measure for `C=CC(=O)Nc1ccc(Sc2nc(Nc3ccc(N4CCC(CO)CC4)cc3)ncc2Br)cc1` [Compound 253, N-(4-(5-bromo-2-(4-(4-(hydroxymethyl)piperidin-1-yl)phenylao)pyrimidin-4-ylthio)phenyl)acrylamide]: < 100 nM.
Under `C=CC(=O)Nc1ccc(Sc2nc(Nc3ccc(N4CCOCC4)nc3)ncc2C)cc1` [Compound 254, N-(4-(5-methyl-2-(6-morpholinopyridin-3-ylao)pyrimidin-4-ylthio)phenyl)acrylamide] stands < 100 nM.
The same measure for `Cc1cc(Sc2nc(Nc3ccc(N4CCOCC4)cc3)ncc2C)ccc1N` [Compound 255, 4-(4-ao-3-methylphenylthio)-5-methyl-N-(4-morpholinophenyl)pyrimidin-2-ae]: < 500 nM; for `C=CC(=O)Nc1ccc(Sc2nc(Nc3ccc(N4CCOCC4)cc3)ncc2C)cc1C` [Compound 259]: < 100 nM; for `C=CC(=O)Nc1ccc(Sc2nc(Nc3ccc(N4CCOCC4)cc3)ncc2C)cc1CC` [Compound 260, N-(2-ethyl-4-(5-methyl-2-(4-morpholinophenylao)pyrimidin-4-ylthio)phenyl)acrylamide]: < 100 nM.
On to `C=CC(=O)N(C)c1ccc(Sc2nc(Nc3ccc(N4CCOCC4)cc3)ncc2Br)cc1` [Compound 261, N-(4-(5-bromo-2-(4-morpholinophenylao)pyrimidin-4-ylthio)phenyl)-N-methylacrylamide], for which the IC50 is < 100 nM.
As to `Cc1cnc(Nc2ccc(N3CCOCC3)cc2)nc1Sc1ccc(N)nc1` [Compound 262, 4-(6-aopyridin-3-ylthio)-5-methyl-N-(4-morpholinophenyl)pyrimidin-2-ae], the IC50 was < 500 nM.
Under `Nc1ccc(Sc2nc(Nc3ccc(N4CCOCC4)cc3)ncc2F)cc1` [Compound 263, 4-(4-aophenylthio)-5-fluoro-N-(4-morpholinophenyl)pyrimidin-2-ae] stands < 500 nM.
Under `Nc1ccc(Sc2nc(Nc3cccc(N4CCOCC4)c3)ncc2I)cc1` [Compound 264, 4-(4-aophenylthio)-5-iodo-N-(3-morpholinophenyl)pyrimidin-2-ae] stands < 500 nM; under `C=CC(=O)Nc1ccc(Sc2nc(Nc3cccc(N4CCOCC4)c3)ncc2F)cc1` [Compound 267, N-(4-(5-fluoro-2-(3-morpholinophenylao)pyrimidin-4-ylthio)phenyl)acrylamide], < 100 nM.
Under `C=CC(=O)Nc1ccc(Sc2nc(Nc3ccc(N4CCOCC4)cc3)ncc2F)cc1` [Compound 268, N-(4-(5-fluoro-2-(4-morpholinophenylao)pyrimidin-4-ylthio)phenyl)acrylamide] stands < 100 nM; under `C=CC(=O)Nc1ccc(Sc2nc(Nc3cccc(N4CCOCC4)c3)ncc2I)cc1` [Compound 269, N-(4-(5-iodo-2-(3-morpholinophenylao)pyrimidin-4-ylthio)phenyl)acrylamide], < 100 nM.
On to `C=CC(=O)Nc1ccc(Sc2ccnc(Nc3ccc(O)cc3)n2)cc1` [Compound 276, N-(4-(2-(4-hydroxyphenylao)pyrimidin-4-ylthio)phenyl)acrylamide], for which the IC50 is < 100 nM.
Consider `C=CC(=O)Nc1ccc(Sc2ccnc(Nc3cccc(O)c3)n2)cc1` [Compound 277, N-(4-(2-(3-hydroxyphenylao)pyrimidin-4-ylthio)phenyl)acrylamide], for which the IC50 was < 100 nM.
The same measure for `C=CC(=O)Nc1ccc(Sc2ccnc(Nc3cccc(CO)c3)n2)cc1` [Compound 278, N-(4-(2-(3-(hydroxymethyl)phenylao)pyrimidin-4-ylthio)phenyl)acrylamide]: < 100 nM; for `C=CC(=O)Nc1ccc(Sc2nc(Nc3cccc(CO)c3)ncc2C)cc1` [Compound 280, N-(4-(2-(3-(hydroxymethyl)phenylao)-5-methylpyrimidin-4-ylthio)phenyl)acrylamide]: < 100 nM; for `C=CC(=O)Nc1ccc(Sc2nc(Nc3ccc(NS(C)(=O)=O)cc3)ncc2C)cc1` [Compound 285, N-(4-(5-methyl-2-(4-(methylsulfonamido)phenylao)pyrimidin-4-ylthio)phenyl)acrylamide]: < 100 nM.
The same measure for `C=CC(=O)Nc1ccc(Sc2nc(Nc3ccc(N4CCC(CO)CC4)cc3)ncc2C)cc1` [Compound 286, N-(4-(2-(4-(4-(hydroxymethyl)piperidin-1-yl)phenylao)-5-methylpyrimidin-4-ylthio)phenyl)acrylamide]: < 100 nM; for `C=CC(=O)Nc1ccc(Sc2nc(Nc3cccc(NS(C)(=O)=O)c3)ncc2C)cc1` [Compound 288, N-(4-(5-methyl-2-(3-(methylsulfonamido)phenylao)pyrimidin-4-ylthio)phenyl)acrylamide]: < 100 nM.
The same measure for `C=CC(=O)Nc1ccc(Sc2nc(Nc3ccc(OCCN4CCOCC4)cc3)ncc2C)cc1` [Compound 290, N-(4-(5-methyl-2-(4-(2-morpholinoethoxy)phenylao)pyrimidin-4-ylthio)phenyl)acrylamide]: < 100 nM; for `C=CC(=O)Nc1ccc(Sc2nc(Nc3ccc(OCCCN(CC)CC)cc3)ncc2C)cc1` [Compound 291, N-(4-(2-(4-(3-(diethylao)propoxy)phenylao)-5-methylpyrimidin-4-ylthio)phenyl)acrylamide]: < 100 nM.
Take `C=CC(=O)Nc1ccc(Sc2nc(Nc3ccc(OC)c(NS(C)(=O)=O)c3)ncc2C)cc1` [Compound 293, N-(4-(2-(4-methoxy-3-(methylsulfonamido)phenylao)-5-methylpyrimidin-4-ylthio)phenyl)acrylamide]: the IC50 was < 100 nM.
In the case of `C=CC(=O)Nc1ccc(Sc2nc(Nc3ccc(N4CCC(O)C4)cc3)ncc2C)cc1` (stereo not drawn) [Compound 295, N-(4-(2-(4-(3-hydroxypyrrolidin-1-yl)phenylao)-5-methylpyrimidin-4-ylthio)phenyl)acrylamide], the IC50 is < 100 nM.
On to `C=CC(=O)Nc1ccc(Sc2nc(Nc3ccc(NS(C)(=O)=O)c(OC)c3)ncc2C)cc1` [Compound 296, N-(4-(2-(3-methoxy-4-(methylsulfonamido)phenylao)-5-methylpyrimidin-4-ylthio)phenyl)acrylamide], for which the IC50 is < 100 nM.
The same measure for `C=CC(=O)Nc1ccc(Sc2nc(Nc3ccc(N4CCCC(O)C4)cc3)ncc2C)cc1` (stereo not drawn) [Compound 299, N-(4-(2-(4-(3-hydroxypiperidin-1-yl)phenylao)-5-methylpyrimidin-4-ylthio)phenyl)acrylamide]: < 100 nM; for `C=CC(=O)Nc1ccc(Sc2nc(Nc3ccc(N4CCOCC4)cc3)ncc2Br)cc1` [Compound 306, N-(4-(5-bromo-2-(4-morpholinophenylao)pyrimidin-4-ylthio)phenyl)acrylamide]: < 100 nM; for `O=C(/C=C/Cl)Nc1cccc(Sc2ccnc(Nc3ccc(N4CCOCC4)cc3)n2)c1` [Compound 340, (E)-3-chloro-N-(3-(2-(4-morpholinophenylao)pyrimidin-4-ylthio)phenyl)acrylamide]: < 100 nM.
Under `O=C(/C=C\Cl)Nc1ccc(Sc2ccnc(Nc3ccc(N4CCOCC4)cc3)n2)cc1` [Compound 346, (Z)-3-chloro-N-(4-(2-(4-morpholinophenylao)pyrimidin-4-ylthio)phenyl)acrylamide] stands < 100 nM; under `C=CC(=O)Nc1ccc(Sc2ccnc(Nc3ccc(S(N)(=O)=O)c(OC)c3)n2)cc1` [Compound 374, N-(4-(2-(3-methoxy-4-sulfamoylphenylao)pyrimidin-4-ylthio)phenyl)acrylamide], < 100 nM.
